Here are results for 17 molecules from patent publication US11851428B2, “Activator of TREK (TWIK RElated K+channels) channels” (ONO PHARMACEUTICAL CO., LTD., priority 2016, dated 2023).

For the first assay, the target named is T1, human TREK-1 (Homo sapiens, UniProt O95069).
T1 construct: expressed in transfected cells
T1 sequence (O95069 1-426): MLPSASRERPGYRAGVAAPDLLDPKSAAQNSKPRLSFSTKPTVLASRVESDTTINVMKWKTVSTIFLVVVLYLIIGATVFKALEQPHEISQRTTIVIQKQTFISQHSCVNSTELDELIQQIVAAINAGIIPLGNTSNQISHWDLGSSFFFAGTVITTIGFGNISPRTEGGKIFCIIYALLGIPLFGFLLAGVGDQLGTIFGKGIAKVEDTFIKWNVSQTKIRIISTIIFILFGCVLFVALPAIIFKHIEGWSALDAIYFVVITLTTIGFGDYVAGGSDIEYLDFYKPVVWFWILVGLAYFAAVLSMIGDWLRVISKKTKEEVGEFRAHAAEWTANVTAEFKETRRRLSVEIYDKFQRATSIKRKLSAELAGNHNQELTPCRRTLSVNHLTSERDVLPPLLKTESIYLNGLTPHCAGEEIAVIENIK
Description: thallium flux assay (TREK1 activation normalized to BL-1249). The assay is classed as cell-based. The conditions noted are these: concentration of Example compound 10 μM; normalized to 10 μM BL-1249; CHO-K1 cells stably expressing human TREK-1. The protocol: The term “thallium flux assay” herein refers to a fluorescence-based assay used to monitor the activity of TREK channels. Thallium is a congener of potassium that readily fluxes through the pore of TREK channels. Thallium flux is measured using a commercially available, thallium-sensitive fluorescent dye called Thallos. The detail method is described below.
Method 1 (Thallium Flux Assay);
CHO-K1 cells stably expressing human TREK-1 or HEK293 cells stably expressing human TREK-2 are plated in 384-well plates, cultured overnight, loaded with Thallos dye the following day, treated with test compounds for 10 min, and then treated with thallium stimulus buffer to initiate thallium flux. The change in fluorescence at 25 seconds after thallium addition is normalized to baseline fluorescence (fluorescent intensity at 25 sec after Tl^+ addition)/(average of fluorescent intensity at pre-read).
As for `O=C(NCc1ccc(OC(F)(F)F)cc1)c1ccc(-c2nccs2)cc1` [Example 2-9, 4-(1,3-thiazol-2-yl)-N-+4-(trifluoromethoxy)benzyl+benzamide], the “TREK1 activation RBL-1249 (%)” value is 25%.
Same read-out and setting: the result for `COc1cc(OC(F)(F)F)ccc1CNC(=O)c1ccc(-c2ccccn2)nc1` [Example 2-29] reads 51%.

The same assay, now with this note: concentration of Example compound 10 μM; normalized to 10 μM BL-1249; CHO-K1 cells stably expressing human TREK-1; read-out: TREK1 activation RBL-1249 (%).
As for `O=C(NCc1ccc(S(F)(F)(F)(F)F)cc1)c1ccc(-n2cncn2)cc1` [Example 2-2, N-[4-(pentafluoro-λ^6-sulfanyl)benzyl]-4-(1H-1,2,4-triazol-1-yl)benzamide], the activation at 10 µM was found to be 41%.
The same measure, in the same setting: the result for `O=C(NCc1ccc(OC(F)(F)F)c(F)c1)c1ccc(-n2cncn2)cc1` [Example 2-3, N-[3-fluoro-4-(trifluoromethoxy)benzyl]-4-(1H-1,2,4-triazol-1-yl)benzamide] reads 72%; that for `O=C(NCc1ccc(OC(F)(F)F)cc1)c1ccc(-c2cnco2)cc1` [Example 2-6, 4-(1,3-oxazol-5-yl)-N-[4-(trifluoromethoxy)benzyl]benzamide], 32%; that for `O=C(NCc1ccc(OC(F)(F)F)cc1)c1ccc(-c2cnc[nH]2)cc1` [Example 2-10, 4-(1H-imidazol-5-yl)-N-[4-(trifluoromethoxy)benzyl]benzamide], 46%.
Same read-out and setting: the result for `O=C(NCc1ccc(OC(F)(F)F)cc1)c1ccc(-c2nnco2)cc1` [Example 2-12, 4-(1,3,4-oxadiazol-2-yl)-N-[4-(trifluoromethoxy)benzyl]benzamide] reads 29%.
Same read-out and setting: the figure for `O=C(NCc1ccc(OC(F)(F)F)cc1F)c1ccc(-n2cncn2)cc1` [Example 2-16, N-[2-fluoro-4-(trifluoromethoxy)benzyl]-4-(1H-1,2,4-triazol-1-yl)benzamide] is 46%.
Regarding `O=C(NCc1ccc(SC(F)(F)F)cc1)c1ccc(-n2cncn2)cc1` [Example 2-18, 4-(1H-1,2,4-triazol-1-yl)-N-{4-[(trifluoromethyl)thio]benzyl}benzamide], the activation at 10 µM stood at 39%.
For `O=C(NCc1ccc(OC(F)(F)F)c(F)c1)c1ccc(-c2nc[nH]n2)cc1` [Example 2-22, N-[3-fluoro-4-(trifluoromethoxy)benzyl]-4-(1H-1,2,4-triazol-3-yl)benzamide], the activation at 10 µM worked out at 66%.
As for `O=C(NCc1ccc(OC(F)(F)F)cc1F)c1ccc(-c2ncn[nH]2)cc1` [Example 2-24, N-[2-fluoro-4-(trifluoromethoxy)benzyl]-4-(1H-1,2,4-triazol-5-yl)benzamide], the activation at 10 µM is 69%.
On the same count and under the same terms, the figure for `COc1cc(OC(F)(F)F)ccc1CNC(=O)c1ccc(-c2nc[nH]n2)cc1` [Example 2-25, N-[2-methoxy-4-(trifluoromethoxy)benzyl]-4-(1H-1,2,4-triazol-3-yl)benzamide] is 48%.
Same read-out and setting: the figure for `O=C(NCc1ccc(C(F)(F)F)cc1Cl)c1ccc(-c2nc[nH]n2)cc1` [Example 2-26, N-[2-chloro-4-(trifluoromethyl)benzyl]-4-(1H-1,2,4-triazol-3-yl)benzamide] is 76%.
Still for that read-out and setting: the figure for `O=C(NCc1ccc(C(F)(F)F)cc1Cl)c1ccc(-c2cccnc2)cc1` [Example 2-28, N-[2-chloro-4-(trifluoromethyl)benzyl]-4-(3-pyridinyl)benzamide] is 22%; for `COc1cc(OC(F)(F)F)ccc1CNC(=O)c1ccc(-n2cncn2)nc1` [Example 2-30, N-[2-methoxy-4-(trifluoromethoxy)benzyl]-6-(1H-1,2,4-triazol-1-yl)nicotinamide] it is 42%; for `Cc1cc(OC(F)(F)F)ccc1CNC(=O)c1ccc(-c2ncn[nH]2)cc1` [Example 2-34, N-[2-methyl-4-(trifluoromethoxy)benzyl]-4-(1H-1,2,4-triazol-5-yl)benzamide] it is 80%.

The same assay, now with this note: concentration of Example compound 30 μM; normalized to 10 μM BL-1249; CHO-K1 cells stably expressing human TREK-1; read-out: TREK1 activation RBL-1249 (%).
For the molecule `O=C(NCc1ccc(OC(F)(F)F)cc1)c1nc(-c2ccccn2)cs1` [Example 2-32, 4-(2-pyridinyl)-N-[4-(trifluoromethoxy)benzyl]-1,3-thiazole-2-carboxamide], the activation at 30 µM stood at 38%.
